Assay results from the NIST ThermoML archive (doi:10.1021/je8004134).
Values joined by “and” are separate entries in the source; they are usually repeats but may differ in a detail not shown here. Equal entries are not always repeated. ± gives the expanded uncertainty stated by the source.

Legend:
[1] = 298.15 K, 101 kPa, Liquid; for speed of sound: Sing-around technique in a fixed-path interferometer; for mass density: Vibrating tube method
[2] = an = ratio of the nth substance listed, in mol/kg; details: 298.15 K, 101 kPa, Liquid; for speed of sound: Sing-around technique in a fixed-path interferometer; for mass density: Vibrating tube method

CC(=O)N(C)C [N,N-dimethylethanamide]
[1]
Details | mass density | speed of sound [m/s]
– | 936.22 ± 0.25 kg/m3 [middle of 9 runs] | 1455.4 ± 1.2

C[S+](C)[O-] [dimethyl sulfoxide]
[1]
Details | mass density | speed of sound [m/s]
– | 1095.19 ± 0.37 kg/m3 and 1095.2 ± 0.38 kg/m3 and 1095.19 ± 0.33 kg/m3 | 1484.1 ± 1.2

[Cu+2].[O-][Cl+3]([O-])([O-])[O-].[O-][Cl+3]([O-])([O-])[O-] [copper perchlorate] + CC(=O)N(C)C
[2]
Details | mass density [kg/m3] | speed of sound [m/s]
a1 = 0.06523 | 950.245 ± 0.31 | 1463.1 ± 1.2
a1 = 0.09641 | 957.338 ± 0.32 | 1466.4 ± 1.2
a1 = 0.1434 | 968.019 ± 0.31 | 1471.3 ± 1.2
a1 = 0.1894 | 978.49 ± 0.31 | 1476.5 ± 1.2
a1 = 0.2336 | 988.543 ± 0.31 | 1481.5 ± 1.2
a1 = 0.2774 | 998.499 ± 0.31 | 1486.9 ± 1.2
a1 = 0.3204 | 1008.3 ± 0.31 | 1492.2 ± 1.2
a1 = 0.364 | 1018.21 ± 0.31 | 1498.1 ± 1.2

[Cl][Cu][Cl] [copper chloride] + C[S+](C)[O-]
[2]
Details | mass density [kg/m3] | speed of sound [m/s]
a1 = 0.04097 | 1100.01 ± 0.33 | 1485.3 ± 1.2
a1 = 0.05136 | 1101.21 ± 0.33 | 1485.5 ± 1.2
a1 = 0.0616 | 1102.39 ± 0.33 | 1485.8 ± 1.2
a1 = 0.07134 | 1103.53 ± 0.33 | 1486 ± 1.2
a1 = 0.08195 | 1104.77 ± 0.33 | 1486.2 ± 1.2
a1 = 0.09202 | 1105.94 ± 0.33 | 1486.4 ± 1.2
a1 = 0.1022 | 1107.13 ± 0.33 | 1486.6 ± 1.2

[Co+2].[O-][Cl+3]([O-])([O-])[O-].[O-][Cl+3]([O-])([O-])[O-] [cobalt(II) perchlorate] + C[S+](C)[O-]
[2]
Details | mass density [kg/m3] | speed of sound [m/s]
a1 = 0.0215 | 1099.78 ± 0.37 | 1485.5 ± 1.2
a1 = 0.03236 | 1102.1 ± 0.38 | 1486.2 ± 1.2
a1 = 0.04309 | 1104.4 ± 0.38 | 1486.9 ± 1.2
a1 = 0.05528 | 1107.03 ± 0.38 | 1487.7 ± 1.2
a1 = 0.06505 | 1109.14 ± 0.38 | 1488.3 ± 1.2
a1 = 0.08726 | 1113.97 ± 0.38 | 1489.8 ± 1.2
a1 = 0.1069 | 1118.27 ± 0.38 | 1491 ± 1.2
a1 = 0.1285 | 1123.03 ± 0.38 | 1492.5 ± 1.2
a1 = 0.148 | 1127.38 ± 0.39 | 1493.7 ± 1.2
a1 = 0.1695 | 1132.18 ± 0.39 | 1495.2 ± 1.2
a1 = 0.1911 | 1137.05 ± 0.39 | 1496.6 ± 1.2

C[S+](C)[O-] [dimethyl sulfoxide] + [Mn+2].[O-][Cl+3]([O-])([O-])[O-].[O-][Cl+3]([O-])([O-])[O-]
[2], a2 = 0
Details | mass density [kg/m3] | speed of sound [m/s]
– | 1095.19 ± 0.37 | 1484.1 ± 1.2

[Cl][Co][Cl] [cobalt chloride] + C[S+](C)[O-]
[2]
Details | mass density [kg/m3] | speed of sound [m/s]
a1 = 0.04252 | 1099.76 ± 0.33 | 1485.1 ± 1.2
a1 = 0.06132 | 1101.77 ± 0.33 | 1485.6 ± 1.2
a1 = 0.08074 | 1103.85 ± 0.33 | 1486.2 ± 1.2
a1 = 0.1018 | 1106.1 ± 0.33 | 1486.7 ± 1.2
a1 = 0.122 | 1108.29 ± 0.33 | 1487.4 ± 1.2
a1 = 0.1423 | 1110.49 ± 0.33 | 1488.2 ± 1.2
a1 = 0.1621 | 1112.63 ± 0.33 | 1488.8 ± 1.2
a1 = 0.1818 | 1114.77 ± 0.33 | 1489.5 ± 1.2
a1 = 0.202 | 1116.97 ± 0.33 | 1490 ± 1.2

C[S+](C)[O-] [dimethyl sulfoxide] + [Cl][Ni][Cl]
[2], a2 = 0
Details | mass density [kg/m3] | speed of sound [m/s]
– | 1095.19 ± 0.34 | 1484.1 ± 1.2

CC(=O)N(C)C [N,N-dimethylethanamide] + [Ni+2].[O-][Cl+3]([O-])([O-])[O-].[O-][Cl+3]([O-])([O-])[O-]
[2], a2 = 0
Details | mass density [kg/m3] | speed of sound [m/s]
– | 936.168 ± 0.32 | 1455.4 ± 1.2

[Cl-].[Cl-].[Zn+2] [zinc chloride] + CC(=O)N(C)C
[2]
Details | mass density [kg/m3] | speed of sound [m/s]
a1 = 0.05996 | 942.244 ± 0.25 | 1456.9 ± 1.2
a1 = 0.1117 | 947.615 ± 0.25 | 1457.9 ± 1.2
a1 = 0.1487 | 951.455 ± 0.24 | 1458.7 ± 1.2
a1 = 0.1875 | 955.473 ± 0.24 | 1459.5 ± 1.2
a1 = 0.223 | 959.152 ± 0.24 | 1460.3 ± 1.2
a1 = 0.2595 | 962.944 ± 0.24 | 1461.2 ± 1.2
a1 = 0.2955 | 966.681 ± 0.24 | 1462.1 ± 1.2
a1 = 0.3148 | 968.679 ± 0.24 | 1462.5 ± 1.2

[Cu+2].[O-][Cl+3]([O-])([O-])[O-].[O-][Cl+3]([O-])([O-])[O-] [copper perchlorate] + C[S+](C)[O-]
[2]
Details | mass density [kg/m3] | speed of sound [m/s]
a1 = 0.01425 | 1098.31 ± 0.38 | 1485 ± 1.2
a1 = 0.02779 | 1101.26 ± 0.38 | 1485.9 ± 1.2
a1 = 0.0419 | 1104.35 ± 0.38 | 1486.8 ± 1.2
a1 = 0.05636 | 1107.54 ± 0.38 | 1487.7 ± 1.2
a1 = 0.07067 | 1110.7 ± 0.38 | 1488.7 ± 1.2
a1 = 0.08366 | 1113.58 ± 0.38 | 1489.5 ± 1.2
a1 = 0.09783 | 1116.73 ± 0.38 | 1490.4 ± 1.2
a1 = 0.1114 | 1119.78 ± 0.39 | 1491.4 ± 1.2
a1 = 0.1251 | 1122.85 ± 0.39 | 1492.2 ± 1.2
a1 = 0.1384 | 1125.85 ± 0.39 | 1493.3 ± 1.2

[Mn+2].[O-][Cl+3]([O-])([O-])[O-].[O-][Cl+3]([O-])([O-])[O-] [manganese (II) perchlorate] + CC(=O)N(C)C
[2]
Details | mass density [kg/m3] | speed of sound [m/s]
a1 = 0.03006 | 942.406 ± 0.31 | 1459.5 ± 1.2
a1 = 0.05909 | 948.611 ± 0.31 | 1463.1 ± 1.2
a1 = 0.08863 | 954.924 ± 0.31 | 1466.8 ± 1.2
a1 = 0.1177 | 961.136 ± 0.31 | 1470.4 ± 1.2
a1 = 0.1466 | 967.302 ± 0.3 | 1474.1 ± 1.2
a1 = 0.1747 | 973.327 ± 0.3 | 1477.6 ± 1.2
a1 = 0.2018 | 979.1 ± 0.3 | 1481.2 ± 1.2
a1 = 0.2287 | 984.866 ± 0.3 | 1485 ± 1.2

CC(=O)N(C)C [N,N-dimethylethanamide] + [Cl][Mn][Cl]
[2], a2 = 0
Details | mass density [kg/m3] | speed of sound [m/s]
– | 936.233 ± 0.25 | 1455.4 ± 1.2

C[S+](C)[O-] [dimethyl sulfoxide] + [Cu+2].[O-][Cl+3]([O-])([O-])[O-].[O-][Cl+3]([O-])([O-])[O-]
[2], a2 = 0
Details | mass density [kg/m3] | speed of sound [m/s]
– | 1095.2 ± 0.38 | 1484.1 ± 1.2
